# Experimental data taken from patent US20220323406A1, “METHODS AND COMPOSITIONS FOR DIFFERENTIATING STEM CELLS” (Massachusetts Institute of Technology, priority 2019, published 2022).
# Where a name gives a salt, the structure may show the parent alone. Read-outs that look alike come from different tables or passages of the source.
# Legend:
# ENR+CD organoids [1] = settings: for Z.CTG: standard z score
# [2] = test system: ENR+CD organoids (ISC to Paneth cell differentiation); assay: Primary screen: basal (non-stimulated) lysozyme secretion LYZ.NS, 2.5-D 384-well ENR+CD organoid differentiation; format: cell-based, mouse; settings: for Z.LYZ.NS / Dose.FC.LYZ.NS: primary screen; for Z.LYZ.NS: standard z score; for primary screen hit call (SSMD and z-scored FC cutoffs in both LYZ assays): LYZ.NS and LYZ.S, 0.08-10 uM, 6 days ENR+CD
# From the text: (§1) High-throughput screening.
# [3] = test system: ENR+CD organoids (ISC to Paneth cell differentiation); assay: Primary screen: CCh-stimulated lysozyme secretion LYZ.S, 2.5-D 384-well ENR+CD organoid differentiation; format: cell-based, mouse; settings: primary screen
# From the text: as §1
# ENR+CD organoids [4] = assay: Primary screen: ATP (CellTiter-Glo 3D, CTG) cell number/viability, 2.5-D 384-well ENR+CD organoids; settings: primary screen; for Z.CTG: standard z score;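 as to all read-outs here: compounds given at plating and again on day 3 over a 6-day differentiation from ENR+CV stem-cell-enriched precursors, ATP measured on day 6, plate median as control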
# [5] = test system: ENR+CD organoids (ISC to Paneth cell differentiation); assay: Secondary (validation) screen: LYZ.NS basal lysozyme secretion, 2.5-D 384-well ENR+CD organoids; format: cell-based, mouse; settings: for Dose.FC.LYZ.NS / Z.LYZ.NS / repSSMD.LYZ.NS: 6-day ENR+CD, vs ENR+CD+DMSO
# ENR+CD organoids [6] = assay: Secondary (validation) screen: ATP (CTG) assay, 2.5-D 384-well ENR+CD organoids; format: cell-based, mouse; settings: 6-day ENR+CD, vs ENR+CD+DMSO
# [7] = test system: ENR+CD organoids (ISC to Paneth cell differentiation); assay: Secondary (validation) screen: LYZ.S CCh-stimulated lysozyme secretion, 2.5-D 384-well ENR+CD organoids; format: cell-based, mouse; settings: 6-day ENR+CD, vs ENR+CD+DMSO
# [8] = dose 0.08 uM, FC vs plate median
# [9] = dose 0.40 uM, FC vs plate median
# [10] = dose 2.00 uM, FC vs plate median
# [11] = dose 10.00 uM, FC vs plate median
# [12] = dose 0.08 uM, FC relative to plate median
# [13] = dose 0.40 uM, FC relative to plate median
# [14] = dose 2.00 uM, FC relative to plate median
# [15] = dose 10.00 uM, FC relative to plate median
smiles,measurement,setting,value
C[C@@H]1O[C@@H](O[C@H]2C[C@@H](O)[C@]3(CO)[C@H]4[C@H](O)C[C@]5(C)[C@@H](C6=CC(=O)OC6)CC[C@]5(O)[C@@H]4CC[C@]3(O)C2)[C@H](O)[C@H](O)[C@H]1O [Ouabain],Dose.FC.CTG,ENR+CD organoids [1]; 10 µM,−0.288 log2 fold change
same,Z.CTG,"ENR+CD organoids [1]; primary screen, dose 0.08 uM",0.023
same,Z.CTG,"ENR+CD organoids [1]; primary screen, dose 0.40 uM",0.290
same,Z.CTG,"ENR+CD organoids [1]; primary screen, dose 2.00 uM",0.190
same,Z.CTG,"ENR+CD organoids [1]; primary screen, dose 10.00 uM",−0.688
same,Dose.FC.CTG,"ENR+CD organoids [1]; primary screen, dose 0.08 uM, FC vs plate median",0.010 log2 fold change
same,Dose.FC.CTG,"ENR+CD organoids [1]; primary screen, dose 0.40 uM, FC vs plate median",0.122 log2 fold change
same,Dose.FC.CTG,"ENR+CD organoids [1]; primary screen, dose 2.00 uM, FC vs plate median",0.080 log2 fold change
same,Z.LYZ.NS,[2]; dose 0.08 uM,−0.025
same,Z.LYZ.NS,[2]; dose 0.40 uM,0.315
same,Z.LYZ.NS,[2]; dose 2.00 uM,0.092
same,Z.LYZ.NS,[2]; dose 10.00 uM,1.433
same,Dose.FC.LYZ.NS,[2]; [8],−0.003 log2 fold change
same,Dose.FC.LYZ.NS,[2]; [9],0.036 log2 fold change
same,Dose.FC.LYZ.NS,[2]; [10],0.011 log2 fold change
same,Dose.FC.LYZ.NS,[2]; [11],0.165 log2 fold change
same,Dose.FC.LYZ.S,[3]; [8],0.040 log2 fold change
same,Dose.FC.LYZ.S,[3]; [9],0.035 log2 fold change
same,Dose.FC.LYZ.S,[3]; [10],0.003 log2 fold change
same,Dose.FC.LYZ.S,[3]; [11],0.050 log2 fold change
Cc1[nH]c(/C=C2\C(=O)Nc3ccc(S(=O)(=O)Cc4c(Cl)cccc4Cl)cc32)c(C)c1C(=O)N1CCC[C@@H]1CN1CCCC1 [PHA-665752],Z.CTG,ENR+CD organoids [4]; dose 0.08 uM,1.126
same,Z.CTG,ENR+CD organoids [4]; dose 0.40 uM,1.482
same,Z.CTG,ENR+CD organoids [4]; dose 2.00 uM,1.339
same,Z.CTG,ENR+CD organoids [4]; dose 10.00 uM,0.057
same,Dose.FC.CTG,ENR+CD organoids [4]; [8],0.471 log2 fold change
same,Dose.FC.CTG,ENR+CD organoids [4]; [9],0.620 log2 fold change
same,Dose.FC.CTG,ENR+CD organoids [4]; [10],0.561 log2 fold change
same,Dose.FC.CTG,ENR+CD organoids [4]; [11],0.024 log2 fold change
same,Dose.FC.LYZ.NS,[5]; 0.10 uM,0.210 log2 fold change
same,Z.LYZ.NS,[5]; 0.10 uM,1.675
same,repSSMD.LYZ.NS,[5]; 0.10 uM,2.400
same,Dose.FC.LYZ.NS,[5]; 0.20 uM,−0.027 log2 fold change
same,Z.LYZ.NS,[5]; 0.20 uM,−0.219
same,repSSMD.LYZ.NS,[5]; 0.20 uM,−0.350
same,Dose.FC.LYZ.NS,[5]; 0.40 uM,0.099 log2 fold change
same,Z.LYZ.NS,[5]; 0.40 uM,0.789
same,repSSMD.LYZ.NS,[5]; 0.40 uM,0.942
same,Dose.FC.LYZ.NS,[5]; 0.80 uM,0.090 log2 fold change
same,Z.LYZ.NS,[5]; 0.80 uM,0.722
same,repSSMD.LYZ.NS,[5]; 0.80 uM,1.142
same,validated doses in secondary screen (SSMD above cutoff in both LYZ assays),[5]; LYZ.NS and LYZ.S,multiple validated doses
same,Dose.FC.CTG,ENR+CD organoids [6]; 0.10 uM,0.100 log2 fold change
same,Z.CTG,ENR+CD organoids [6]; 0.10 uM,0.898
same,repSSMD.CTG,ENR+CD organoids [6]; 0.10 uM,0.755
same,Dose.FC.CTG,ENR+CD organoids [6]; 0.20 uM,−0.032 log2 fold change
same,Z.CTG,ENR+CD organoids [6]; 0.20 uM,−0.288
same,repSSMD.CTG,ENR+CD organoids [6]; 0.20 uM,−0.244
same,Dose.FC.CTG,ENR+CD organoids [6]; 0.40 uM,0.303 log2 fold change
same,Z.CTG,ENR+CD organoids [6]; 0.40 uM,2.735
same,repSSMD.CTG,ENR+CD organoids [6]; 0.40 uM,1.415
same,Dose.FC.CTG,ENR+CD organoids [6]; 0.80 uM,0.185 log2 fold change
same,Z.CTG,ENR+CD organoids [6]; 0.80 uM,1.664
same,repSSMD.CTG,ENR+CD organoids [6]; 0.80 uM,1.023
same,Z.LYZ.NS,[2]; dose 0.08 uM,1.586
same,Z.LYZ.NS,[2]; dose 0.40 uM,2.368
same,Z.LYZ.NS,[2]; dose 2.00 uM,1.591
same,Z.LYZ.NS,[2]; dose 10.00 uM,−0.931
same,Dose.FC.LYZ.NS,[2]; [8],0.182 log2 fold change
same,Dose.FC.LYZ.NS,[2]; [9],0.272 log2 fold change
same,Dose.FC.LYZ.NS,[2]; [10],0.183 log2 fold change
same,Dose.FC.LYZ.NS,[2]; [11],−0.107 log2 fold change
same,Dose.FC.LYZ.S,[7]; 0.10 uM,0.133 log2 fold change
same,Z.LYZ.S,[7]; 0.10 uM,1.019
same,repSSMD.LYZ.S,[7]; 0.10 uM,1.586
same,Dose.FC.LYZ.S,[7]; 0.20 uM,−0.089 log2 fold change
same,Z.LYZ.S,[7]; 0.20 uM,−0.680
same,repSSMD.LYZ.S,[7]; 0.20 uM,−1.201
same,Dose.FC.LYZ.S,[7]; 0.40 uM,0.076 log2 fold change
same,Z.LYZ.S,[7]; 0.40 uM,0.585
same,repSSMD.LYZ.S,[7]; 0.40 uM,0.906
same,Dose.FC.LYZ.S,[7]; 0.80 uM,0.048 log2 fold change
same,Z.LYZ.S,[7]; 0.80 uM,0.365
same,repSSMD.LYZ.S,[7]; 0.80 uM,0.542
same,Dose.FC.LYZ.S,[3]; [8],0.163 log2 fold change
same,Dose.FC.LYZ.S,[3]; [9],0.373 log2 fold change
same,Dose.FC.LYZ.S,[3]; [10],0.143 log2 fold change
same,Dose.FC.LYZ.S,[3]; [11],−0.165 log2 fold change
"C[C@H](NCc1ccc(OCc2cccc(F)c2)cc1)C(N)=O [Safinamide Mesylate, reference compound]",Dose.FC.CTG,ENR+CD organoids [4]; [12],0.265 log2 fold change
same,Dose.FC.CTG,ENR+CD organoids [4]; [13],0.241 log2 fold change
same,Dose.FC.CTG,ENR+CD organoids [4]; [14],0.263 log2 fold change
same,Dose.FC.CTG,ENR+CD organoids [4]; [15],0.369 log2 fold change
same,Dose.FC.LYZ.NS,[5]; 0.50 uM,−0.156 log2 fold change
same,Dose.FC.LYZ.NS,[5]; 1.00 uM,−0.231 log2 fold change
same,Dose.FC.LYZ.NS,[5]; 2.00 uM,−0.046 log2 fold change
same,Dose.FC.LYZ.NS,[5]; 4.00 uM,−0.034 log2 fold change
same,Dose.FC.CTG,ENR+CD organoids [6]; 0.50 uM,−0.014 log2 fold change
same,Dose.FC.CTG,ENR+CD organoids [6]; 1.00 uM,−0.082 log2 fold change
same,Dose.FC.CTG,ENR+CD organoids [6]; 2.00 uM,−0.011 log2 fold change
same,Dose.FC.CTG,ENR+CD organoids [6]; 4.00 uM,−0.002 log2 fold change
same,primary screen hit call (SSMD and z-scored FC cutoffs in both LYZ assays),[2],sole hit in their respective pathway
same,Dose.FC.LYZ.NS,[2]; [12],0.160 log2 fold change
same,Z.LYZ.NS,[2]; dose 0.08 uM,1.394
same,Dose.FC.LYZ.NS,[2]; [13],0.093 log2 fold change
same,Z.LYZ.NS,[2]; dose 0.40 uM,0.814
same,Dose.FC.LYZ.NS,[2]; [14],0.174 log2 fold change
same,Z.LYZ.NS,[2]; dose 2.00 uM,1.518
same,Dose.FC.LYZ.NS,[2]; [15],0.057 log2 fold change
same,Z.LYZ.NS,[2]; dose 10.00 uM,0.499
same,Dose.FC.LYZ.S,[7]; 0.50 uM,−0.213 log2 fold change
same,Dose.FC.LYZ.S,[7]; 1.00 uM,−0.294 log2 fold change
same,Dose.FC.LYZ.S,[7]; 2.00 uM,−0.099 log2 fold change
same,Dose.FC.LYZ.S,[7]; 4.00 uM,−0.086 log2 fold change
same,Dose.FC.LYZ.S,[3]; [12],0.302 log2 fold change
same,Dose.FC.LYZ.S,[3]; [13],0.191 log2 fold change
same,Dose.FC.LYZ.S,[3]; [14],0.236 log2 fold change
same,Dose.FC.LYZ.S,[3]; [15],0.143 log2 fold change
"COc1ccc(C2CNC(=O)C2)cc1OC1CCCC1 (stereo not drawn) [Rolipram, reference compound]",Dose.FC.CTG,ENR+CD organoids [4]; [12],0.356 log2 fold change
same,Dose.FC.CTG,ENR+CD organoids [4]; [13],0.155 log2 fold change
same,Dose.FC.CTG,ENR+CD organoids [4]; [14],0.396 log2 fold change
same,Dose.FC.CTG,ENR+CD organoids [4]; [15],0.299 log2 fold change
same,Dose.FC.LYZ.NS,[5]; 0.50 uM,−0.043 log2 fold change
same,Dose.FC.LYZ.NS,[5]; 1.00 uM,0.152 log2 fold change
same,Dose.FC.LYZ.NS,[5]; 2.00 uM,0.099 log2 fold change
same,Dose.FC.LYZ.NS,[5]; 4.00 uM,−0.051 log2 fold change
same,Dose.FC.CTG,ENR+CD organoids [6]; 0.50 uM,0.053 log2 fold change
same,Dose.FC.CTG,ENR+CD organoids [6]; 1.00 uM,0.133 log2 fold change
same,Dose.FC.CTG,ENR+CD organoids [6]; 2.00 uM,0.202 log2 fold change
same,Dose.FC.CTG,ENR+CD organoids [6]; 4.00 uM,0.065 log2 fold change
same,primary screen hit call (SSMD and z-scored FC cutoffs in both LYZ assays),[2],sole hit in their respective pathway
same,Dose.FC.LYZ.NS,[2]; [12],0.406 log2 fold change
same,Z.LYZ.NS,[2]; dose 0.08 uM,3.532
same,Dose.FC.LYZ.NS,[2]; [13],0.063 log2 fold change
same,Z.LYZ.NS,[2]; dose 0.40 uM,0.545
same,Dose.FC.LYZ.NS,[2]; [14],0.169 log2 fold change
same,Z.LYZ.NS,[2]; dose 2.00 uM,1.470
same,Dose.FC.LYZ.NS,[2]; [15],0.112 log2 fold change
same,Z.LYZ.NS,[2]; dose 10.00 uM,0.975
same,Dose.FC.LYZ.S,[7]; 0.50 uM,−0.082 log2 fold change
same,Dose.FC.LYZ.S,[7]; 1.00 uM,0.104 log2 fold change
same,Dose.FC.LYZ.S,[7]; 2.00 uM,0.030 log2 fold change
same,Dose.FC.LYZ.S,[7]; 4.00 uM,−0.071 log2 fold change
same,Dose.FC.LYZ.S,[3]; [12],0.239 log2 fold change
same,Dose.FC.LYZ.S,[3]; [13],0.156 log2 fold change
same,Dose.FC.LYZ.S,[3]; [14],0.337 log2 fold change
same,Dose.FC.LYZ.S,[3]; [15],0.223 log2 fold change
